In patent US11696903B2, “Compounds and methods for scavenging dicarbonyl electrophiles” (VANDERBILT UNIVERSITY, priority 2019, dated 2023):
Entries after “also recorded” stand apart in the source; their conditions may differ.

Key:
[1] = test system: COX-2 activity; experiment: PGE2 production in A549 cell media (GC/MS) as measure of COX-2 activity; type: cell-based, human
Experimental: (A). Scavengers were screened in RAW264.7 cells for the ability to decrease LG adduct formation on histones. Scavengers used were glucosamine (GA), 3-methoxysalicylamine (3-MoSA), pentylpyridoxamine (PPM), and 5-ethylsalicylamine (EtSA). Cells were stimulated to express COX-2, pretreated 45 min. with 500 μM scavenger or vehicle (H2O), and given 20 μM AA for 1 h before lysing and extracting histones. Histone proteins were analyzed by LC/ESI/MS/MS for LG-lysyl lactam adduct, n=2. (B) Stimulated A549 cells were pretreated with 30, 300, or 1000 μM EtSA prior to 1 h with 20 μM AA, and histones analyzed for LG-lysyl adduct. *, p<0.05 by one-way ANOVA followed by Dunnett's multiple comparisons post-test (n=3-5). (C). A549 cells were stimulated, pretreated 45 min. with 1000 μM EtSA or H2O vehicle, and given 20 μM AA for 1 h. Media was analyzed by GC/MS for PGE2 (n=3). There was no effect on PGE2 production at lower doses of EtSA (data not shown).
To stimulate COX-2 expression, A549 or RAW264.7 cells were treated overnight with 5 ng/mL IL-1B (A549) or 10 μg/mL LPS and 10 U/mL IFNγ (RAW264.7) in serum-free medium. When indicated, cells were pretreated with indomethacin, aldehyde scavengers (glucosamine, 3-MoSA, PPM or EtSA), or vehicle (ethanol for indomethacin, H2O for scavengers) for 45 min, and then given 20 μM arachidonic acid (AA) or DMSO vehicle for 1 h before lysing. […]

[2] = test system: INS-GAS mice infected with H. pylori; experiment: H. pylori-induced gastric dysplasia and carcinoma in INS-GAS mice; type: in vivo
Experimental: FIGS. 16A, 16B, 16C, 16D, 16E, and 16F show INS-GAS mice (8 per group) were infected or not with H. pylori strain PMS for 8 weeks and then treated with EtSA (7.5 mg/ml) one week after infection. (A) EtSA concentration in gastric tissues; **P<0.01, ****P<0.0001 vs. mice without EtSA. (B) Frequency of diagnoses. IMC, intramucosal carcinoma; LGD, low grade dysplasia; ND, no dysplasia. (C) Quantification of extent of dysplasia and cancer as a percentage of tissue sections. (D) H&E staining of INS-GAS mouse stomach tissues, showing carcinoma in an infected mouse; scale bar, 50 μm. In B and C, *P<0.05, **P<0.01 vs. infected mice.
As discussed further in the Examples, the human gastric epithelial cell line AGS was infected with Hp PMSS1±10 mM EtSA. FVB/N insulin-gastrin (INS-GAS) mice and Mongolian gerbils were infected for 8 wk with Hp PMSS1 and 7.13, respectively; EtSA (0.75% in water) was given to animals beginning one wk post-infection. Lys-LG adducts, a marker of electrophile reactions, and EtSA were quantified by LC/EST/MS/MS. Histology was analyzed on H&E staining. DNA damage was evaluated by pH2AX staining. Hp colonization was quantified by culture. Mucosal immune responses were determined by RNA profiling and by Luminex assay. Mice were imaged using PET/CT with ^18F-FDG (inflammation marker) and ^18F—NaF (tumor marker).
The effect of a scavenger of levuglandins and other dicarbonyls was investigated in transgenic INS-GAS mice, which have high circulating gastrin levels and develop atrophic gastritis, and dysplasia and carcinoma with H. pylori infection. Mice were infected with H. pylori, and then EtSA was administered in drinking water, starting 7 days after infection. After 8 weeks, EtSA levels were measured in the gastric tissues of uninfected and infected mice receiving this compound (FIG. 16A). […] There was no dysplasia or carcinoma in uninfected mice (FIG. 16D).

[3] = test system: LG-histone adducts in A549 cells; experiment: LG-lysyl adduct formation on histones in A549 cells (LC/ESI/MS/MS); type: cell-based, human; details: stimulated A549, 30, 300 or 1000 μM EtSA, 20 μM AA 1 h
Experimental: FIGS. 11A, 11B, 11C, 11D, 11E, and 11F are a series of graphs showing that LG-lysine adducts of histones are found in cells and tissue, dependent on COX-2 activity. RAW264.7 mouse macrophage (A) and A549 human lung carcinoma (C) cells were stimulated to express COX-2, then given 20 μM arachidonic acid (AA) or vehicle. A subgroup of cells was preincubated 45 min with 50 μM indomethacin. As a measure of COX activity, PGE2 was determined by GC/MS from cell media prior to lysis (B and D). Nuclei were isolated, and histones were extracted and digested to individual amino acids prior to LC/EST/MS/MS analysis. *, p<0.05; ***, p<0.001 by ANOVA followed by Tukey's post-test (n≥5). (E). Histones were extracted from nuclei of rat liver, and analyzed as above for LG-lactam adduct. COX-2 protein was analyzed by Western blotting and plotted against lactam adduct levels. Each point corresponds to 1 liver, and shown is the line of regression (r^2=0.7237). Pearson r=0.8507; two-tailed p=0.0152. […]
(A). […] Histone proteins were analyzed by LC/ESI/MS/MS for LG-lysyl lactam adduct, n=2. (B) Stimulated A549 cells were pretreated with 30, 300, or 1000 μM EtSA prior to 1 h with 20 μM AA, and histones analyzed for LG-lysyl adduct. *, p<0.05 by one-way ANOVA followed by Dunnett's multiple comparisons post-test (n=3-5). […] Media was analyzed by GC/MS for PGE2 (n=3). […]

[4] = H. pylori-infected INS-GAS mice treated with EtSA, 8 weeks, 37.5% without EtSA

Structure (SMILES): CCc1ccc(O)c(CN)c1 [EtHOBA, 5-ethyl-2-hydroxybenzylamine]
- PGE2 production ([1]; A549, highest concentration tested (1000 μM EtSA)): without affecting
- PGE2 production ([1]; A549, lower doses of EtSA (data not shown)): no effect
- development of carcinoma [2, 4]: 0%
- development of dysplasia [2, 4]: 14.3%
- extent of dysplasia and carcinoma ([2]; Hp-infected INS-GAS mice treated with EtSA, percentage of gastric mucosa): significantly attenuated; also recorded: decreases
- frequency of intramucosal carcinoma ([2]; Hp-infected INS-GAS mice treated with EtSA, 69% without EtSA, p<0.05): 28%
- LG-histone adduct formation [3]: inhibited
